PMC11648822, “Lactam Truncation Yields a Dihydroquinazolinone Scaffold with Potent Antimalarial Activity that Targets PfATP4” (Chemmedchem, 2024)
Like-named read-outs stand apart in the source and are kept apart here.

Columns and labels:
[1] = tested on: P. falciparum Dd2; experiment: P. falciparum viability assay (SYBR green), Dd2; assay type: cell-based; settings: Plasmodium falciparum, DD2, 72 h, read-out: P. falciparum parental EC50 (SD) Dd2
Experimental: (§1) These assays were performed as previously described.[16] P. falciparum 3D7 parasites and resistant lines Dd2, W2mef, 7G8, and artemisinin‐resistant Cambodian isolate (Cam3.I (2539T)), and P. knowlesi YH1, were cultured in human O^+ erythrocytes (RBCs) (Australian Red Cross Blood Service), in RPMI‐HEPES culture medium (pH 7.4, 50 μg/mL hypoxanthine, 25 mM NaHCO3, 20 μg/mL gentamicin, 0.5 % Albumax II (GibcoBRL)) (Thermo Fisher Scientific) and maintained in an atmosphere of 1 % O2, 4 % CO2 and 95 % N2. Parasites were synchronised with 5 % (w/v) sorbitol (Sigma‐Aldrich) treatments for ring stages. Growth assays for measuring drug inhibition of in‐cycle, ring to schizont stage parasites have been described previously. Parasites were grown in 1 % haematocrit, at 1 % and 2 % parasitaemia for P. falciparum and P. knowlesi respectively. […] Parasitaemia was measured using a SYBR DNA staining assay on a fluorometer.[33] After the incubation period, supernatants were removed and well contents were resuspended in PBS.

[2] = tested on: P. falciparum Dd2 PfATP4^D425E strain; experiment: 'compound 49' resistant parasite viability assay (LDH), Dd2 D425E; assay type: cell-based; settings: Plasmodium falciparum, DD2, 72 h, read-out: Dd2^D425E EC50 (SD)
Experimental: (§2) These assays were performed according to a previously described protocol.[16] Briefly, P. falciparum Dd2 strains treated with compound were incubated for 72 h at 37 °C. After incubating for 72 h, plates were frozen at −80 °C and then thawed at room temperature for at least 2 h. LDH activity, a surrogate for parasite growth was measured by the addition of the Malstst reagent mix, followed by incubation for 30 min and absorbance read using a ClarioStar Microplate reader at 650 nm. Values were normalized to DMSO control as a percentage and EC50 and dose response curves generated using GraphPad Prism.

[3] = tested on: P. falciparum CAM3.1; experiment: Multidrug-resistant parasite viability assay (SYBR green), CAM3.1; assay type: cell-based; settings: Plasmodium falciparum, 72 h, read-out: multidrug resistant P. falciparum strains EC50 (SD) CAM3.1
Experimental: as §1

[4] = tested on: P. falciparum Dd2 PfATP4^triple (I398F, P990R, D1247Y) strain; experiment: PfATP4 drug resistant parasite viability assay (LDH), Dd2 triple; assay type: cell-based; settings: Plasmodium falciparum, DD2, 72 h, read-out: Dd2^triple EC50 (SD)
Experimental: as §2

[5] = tested on: P. knowlesi YH1 parasites; experiment: P. knowlesi viability assay (SYBR green); assay type: cell-based; settings: Plasmodium knowlesi, 48 h, read-out: P. knowlesi EC50 (SD) YH1
Experimental: (§3) These assays were performed as previously described.[16] […] Parasites were synchronised with 5 % (w/v) sorbitol (Sigma‐Aldrich) treatments for ring stages. […] Parasites were grown in 1 % haematocrit, at 1 % and 2 % parasitaemia for P. falciparum and P. knowlesi respectively. […] Parasitaemia was measured using a SYBR DNA staining assay on a fluorometer.[33] After the incubation period, supernatants were removed and well contents were resuspended in PBS.

[6] = tested on: P. falciparum 3D7 parasites; experiment: P. falciparum viability assay (SYBR green), 3D7; assay type: cell-based; settings: Plasmodium falciparum, 3D7; SYBR green, 72 h; read-out: P. falciparum parental EC50 (SD) 3D7
Experimental: as §3

[7] = tested on: P. falciparum (Pf) 3D7 parasites; experiment: P. falciparum LDH viability assay; assay type: cell-based; settings: Plasmodium falciparum, 3D7, 72 h, LDH activity at 72 h; mean and SD of 3 independent experiments
Excerpt: This assay is a platform assay conducted at the Walter and Eliza Hall Institute and uses a protocol previously decsribed.[30, 31]

[8] = tested on: P. falciparum 7G8; experiment: Multidrug-resistant parasite viability assay (SYBR green), 7G8; assay type: cell-based; settings: Plasmodium falciparum, 7G8, 72 h, read-out: multidrug resistant P. falciparum strains EC50 (SD) 7G8
Experimental: as §1

[9] = tested on: P. falciparum Dd2 PfATP4^G358S strain; experiment: PfATP4 drug resistant parasite viability assay (LDH), Dd2 G358S; assay type: cell-based; settings: Plasmodium falciparum, DD2, 72 h, read-out: Dd2^G358S EC50 (SD)
Experimental: as §2

[10] = Human HepG2 cytotoxicity assay (Cell Titre Glo); assay type: cell-based; settings: HepG2 cells, growth inhibition at 48 h, 4 replicate experiments, read-out: HepG2 CC50 (SD)
Excerpt: This assay uses Cell TitreGlo as a metabolic maker for human HepG2 cell growth and uses a protocol previously described.[32]

[11] = tested on: P. falciparum Dd2 parental strain; experiment: PfATP4 drug resistant parasite viability assay (LDH), Dd2 parental; assay type: cell-based; settings: Plasmodium falciparum, DD2, 72 h, read-out: Dd2^parental EC50 (SD)
Experimental: as §2

[12] = tested on: P. falciparum Dd2 PfATP4^F156L strain; experiment: 'compound 49' resistant parasite viability assay (LDH), Dd2 F156L; assay type: cell-based; settings: Plasmodium falciparum, DD2, 72 h, read-out: Dd2^F156L EC50 (SD)
Experimental: as §2

[13] = tested on: P. falciparum W2^mef; experiment: Multidrug-resistant parasite viability assay (SYBR green), W2mef; assay type: cell-based; settings: Plasmodium falciparum, W2, 72 h, read-out: multidrug resistant P. falciparum strains EC50 (SD) W2^mef
Experimental: as §1

[14] = tested on: P. falciparum Dd2 strain with 2.8-fold amplification in PfATP4; experiment: 'compound 49' resistant parasite viability assay (LDH), Dd2 2.8 CNV; assay type: cell-based; settings: Plasmodium falciparum, DD2, 72 h, read-out: Dd2^2.8 CNV EC50 (SD)
Experimental: as §2

[15] = tested on: P. falciparum Dd2 PfATP4^triple (I398F, P990R, D1247Y) strain; set-up: method as in Ashton, Dans et al. 10; settings: ref Ashton, Dans et al. 10; cited from earlier work
[16] = tested on: P. falciparum (Pf) 3D7 parasites; set-up: method as in PMID 36812492, PMID 39134060; settings: Figure 1; cited from earlier work
[17] = Figure 1; cited from earlier work
[18] = set-up: method as in PMID 39134060; settings: 25 mg/kg oral dose, 4-day model; recrudescence detected after day 4; cited from earlier work
[19] = tested on: P. falciparum Dd2 parental strain; set-up: method as in Ashton, Dans et al. 10; settings: LDH at 72 h; ref Ashton, Dans et al. 10; cited from earlier work
[20] = tested on: P. falciparum Dd2 PfATP4^G358S strain; set-up: method as in Ashton, Dans et al. 10; settings: ref Ashton, Dans et al. 10; cited from earlier work
[21] = tested on: P. berghei ANKA; experiment: P. berghei 4-day mouse model; assay type: in vivo; settings: 30 mg/kg p.o. q.d.
Experimental: In this model, mice are infected with P. berghei ANKA asexual blood stage parasites. Compounds are then administered by oral gavage at 20 mg/kg 2, 24, 48, and 72 hours after the parasite infection.
Each day, a fresh aliquot of the compound stock was diluted 1/10 in water for administration to mice. 8 week old female mice (Ozgene) on day 0 were infected with 2×10^7 P. berghei ANKA‐infected erythrocytes. […] 2 mice were also dosed with artesunate using the same regime at 30 mg/kg. The parasitemia of mice was assessed by visualizing Giemsa‐stained thin blood smears by microscopy and a minimum of 1000 RBCs were counted. To calculate the percent antimalarial activity the following formula was used: 100 ‐ (mean parasitemia treated day 4 post‐infection/mean parasitemia vehicle control day 4 post‐infection)×100. Mice were culled the day following the last oral gavage.
Briefly, ‘donor’ female Swiss mice were infected intraperitoneally (IP) with blood stage P. berghei parasites constitutively expressing GFP (P. berghei ANKA GFPcon 259cl2).[36] Three days later, groups of 3 ‘acceptor’ Swiss mice were infected intravenously with 1 x 10^7 parasitised red blood cells from the ‘donor mice’. […] Control mice were left untreated. Peripheral blood samples were taken 24 h after administration of the last dose, and parasitemia was measured by flow cytometry (proportion of GFP‐positive cells in 100,000 recorded events using Attune Nxt, ThermoFisher) and microscopic analysis of Giemsa‐stained blood smears. Parasitemia values were averages of 3 mice per group.

[22] = target: T1, PfATP4 (membranes prepared from 3D7 parasites) (Plasmodium falciparum, UniProt A0A143ZZK9); experiment: PfATP4 Na+ assay (membrane ATPase), 3D7 membranes; assay type: biochemical, P. falciparum; settings: 50 nM; any of the conditions tested; negative control
T1 construct: The membranes were prepared from isolated trophozoite‐stage 3D7 parasites; endogenous in cells; host or cells: P. falciparum 3D7 trophozoites (membrane preparation)
Experimental: Figure 4 Dihydroquinazolinone analogs 14 and 36 (WJM062) inhibit Na^+‐ATPase activity in membranes prepared from isolated P. falciparum parasites, consistent with them being PfATP4 inhibitors. (A) The effects of dihydroquinazolinone compounds (2 μM), dihydroartemisinin (DHA; 50 nM; negative control) and 0.2 % v/v DMSO (solvent‐only control) on membrane ATPase activity under high‐[Na^+] conditions (152 mM Na^+) and low‐[Na^+] conditions (2 mM Na^+; stemming from the addition of 1 mM Na2ATP) in the presence and absence of the PfATP4 inhibitor cipargamin (50 nM). The membranes were prepared from isolated trophozoite‐stage 3D7 parasites. The Pi produced is expressed as a percentage of that measured in the 152 mM Na^+ Control. The data are from four independent experiments performed with different membrane preparations; the symbols show the data from individual experiments and the bars show the mean (+SEM). In individual experiments, the Pi produced in the 152 mM Na^+ Control varied from 66 to 96 nmol per mg (total) protein per min. A repeated measures ANOVA with a post hoc Tukey test was used to compare the (pre‐normalised) data for different compounds and conditions. For comparisons between different conditions for the same test compound (or for the Control), significant differences are shown with black asterisks. For comparisons between the Control and a compound under the same test condition, significant differences are shown with coloured asterisks (in this case, grey asterisks, as the only significant differences were between the control and the dihydroquinazolinone compounds in the 152 mM Na^+ condition). ***P<0.001. (B) Concentration‐dependence of the effects of dihydroquinazolinone compounds on PfATP4‐associated ATPase activity in membranes prepared from 3D7 parasites. The data are the mean (shown + or − SEM) obtained from four independent experiments performed with different membrane preparations, with the exception of the lowest and second‐lowest concentrations of the compounds, for which data are from two and three independent experiments, respectively. (C and D) Potency of dihydroquinazolinone compounds against PfATP4‐associated ATPase activity in membranes prepared from Dd2‐Polδ‐PfATP4^G358S parasites (open triangles) and their Dd2‐Polδ parents (closed triangles). The data are the mean (shown + or − SEM) from four (C) or three (D) independent experiments. In B−D, the Pi production measured in the low‐[Na^+] (2 mM) condition was subtracted from that measured in high‐[Na^+] (152 mM) in the presence of each of the different concentrations of dihydroquinazolinone compounds to calculate the PfATP4‐associated ATPase activity. The PfATP4‐associated ATPase activity is expressed as a percentage of that obtained for the high‐[Na^+] (152 mM) Control.
Membrane ATPase assays were performed using a PiColorLock Gold Phosphate Detection System (Innova Biosciences), essentially as described previously.[25] Membranes were prepared either from isolated 3D7 trophozoites or from isolated Dd2‐Polδ‐PfATP4^G358S [22] and Dd2‐Polδ trophozoites.[26]

T1 sequence (A0A143ZZK9 whole entry): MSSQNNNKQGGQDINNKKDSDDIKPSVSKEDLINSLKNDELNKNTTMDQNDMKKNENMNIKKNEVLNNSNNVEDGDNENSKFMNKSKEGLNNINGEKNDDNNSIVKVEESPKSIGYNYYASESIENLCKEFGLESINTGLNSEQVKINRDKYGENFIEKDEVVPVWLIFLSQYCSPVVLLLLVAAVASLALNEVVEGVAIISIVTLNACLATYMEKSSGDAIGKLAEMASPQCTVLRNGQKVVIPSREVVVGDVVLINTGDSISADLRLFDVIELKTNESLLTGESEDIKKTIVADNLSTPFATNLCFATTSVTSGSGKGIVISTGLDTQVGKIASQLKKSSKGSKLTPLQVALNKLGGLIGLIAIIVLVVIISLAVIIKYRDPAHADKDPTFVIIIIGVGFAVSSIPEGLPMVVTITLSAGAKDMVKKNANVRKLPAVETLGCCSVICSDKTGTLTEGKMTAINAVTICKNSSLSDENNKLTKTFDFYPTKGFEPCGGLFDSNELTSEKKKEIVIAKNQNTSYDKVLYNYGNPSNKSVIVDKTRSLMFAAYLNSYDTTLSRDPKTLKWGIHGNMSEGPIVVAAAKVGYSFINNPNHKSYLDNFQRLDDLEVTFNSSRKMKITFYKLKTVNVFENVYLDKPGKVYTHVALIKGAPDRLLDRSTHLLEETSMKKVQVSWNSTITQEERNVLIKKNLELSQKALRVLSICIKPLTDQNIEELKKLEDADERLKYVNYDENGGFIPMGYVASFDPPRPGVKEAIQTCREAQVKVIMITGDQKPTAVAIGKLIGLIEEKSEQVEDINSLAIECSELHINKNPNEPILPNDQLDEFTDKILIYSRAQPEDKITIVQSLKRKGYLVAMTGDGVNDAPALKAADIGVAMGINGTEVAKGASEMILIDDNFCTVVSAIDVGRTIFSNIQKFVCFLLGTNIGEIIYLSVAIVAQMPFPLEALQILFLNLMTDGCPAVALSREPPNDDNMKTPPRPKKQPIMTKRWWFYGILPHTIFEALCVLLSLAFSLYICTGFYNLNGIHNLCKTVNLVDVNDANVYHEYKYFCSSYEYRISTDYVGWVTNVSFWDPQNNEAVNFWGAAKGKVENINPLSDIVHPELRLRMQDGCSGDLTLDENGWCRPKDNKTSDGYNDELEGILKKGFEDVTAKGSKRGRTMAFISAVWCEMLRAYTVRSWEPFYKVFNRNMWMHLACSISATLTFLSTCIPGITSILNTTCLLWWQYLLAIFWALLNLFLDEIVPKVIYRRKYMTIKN

CN1C(=O)c2ccc(Cl)cc2NC1(C)C(=O)Nc1cccc(Cl)c1 (centres unmarked) [Compound 11, 7‐Chloro‐N‐(3‐chlorophenyl)‐2,3‐dimethyl‐4‐oxo‐1,2,3,4‐tetrahydroquinazoline‐2‐carboxamide]
EC50 [1]: 17 nM | EC50 [2]: 36 nM | EC50 [3]: 13 nM | EC50 [4]: 140 nM | EC50 [5]: 65 nM | EC50 [6]: 14 nM | EC50 [7]: 18 nM | EC50 [8]: 33 nM | EC50 [9]: 44 nM | CC50 at 48 h [10]: > 40000 nM | EC50 [11]: 21 nM | EC50 [12]: 41 nM | EC50 [13]: 9 nM | EC50 [14]: 40 nM

C[C@H]1Cc2c([nH]c3cc(Cl)c(F)cc23)[C@@]2(N1)C(=O)Nc1ccc(Cl)cc12 [KAE609, reference compound]
EC50 [2]: 2 nM | EC50 [15]: 9 nM | EC50 [12]: 4 nM | EC50 [14]: 3 nM

CN1C(=O)c2c(F)cc(-c3cnn(C)c3)cc2N2C(=O)CCC12C(=O)Nc1cncc(Cl)c1 (centres unmarked) [S-WJM992 (5)]
EC50 [16]: 8 nM | Rat hepatocytes CLint [17]: 14 μL/min/10^6 cells | effect on parasitemia [18]: cleared parasitemia

N#Cc1cc(NC(=O)[C@H]2c3ccccc3C(=O)N(CC(F)(F)F)[C@@H]2c2cccnc2)ccc1F [SJ733, reference compound]
EC50 [2]: 80 nM | EC50 [19]: 68 nM | EC50 [20]: > 11000 nM | EC50 [12]: 135 nM | EC50 [14]: 129 nM

C[C@H]1[C@H](OC(=O)CCC(=O)O)O[C@@H]2O[C@@]3(C)CC[C@H]4[C@H](C)CC[C@@H]1[C@@]24OO3 [artesunate, reference compound]
% parasitemia ([21]; day 4): 0.66% | % reduction in parasitemia ([21]; day 4, versus control): 96%

C[C@H]1[C@@H](O)O[C@@H]2O[C@@]3(C)CC[C@H]4[C@H](C)CC[C@@H]1[C@@]24OO3 [dihydroartemisinin, reference compound]
effect on membrane ATPase activity [22]: no effect
